Consider 12 molecules from publication PMC4778717 (ChemMedChem, 2015).

One assay relates to S. aureus 6538. Kind of assay: Bacteriostatic effect. Type of assay: cell-based. The settings on record: for MIC: Staphylococcus aureus, 6538, 24 h, read-out: MIC, S. aureus 6538; for MIC, S. aureus 6538: 24 hr incubation at 37 °C.
In a further assay the target is EcSecAN68 (Escherichia coli, UniProt P10408). Kind of assay: biochemical. Set-up: species or system E. coli.
For the next assay, the system named is E. coli NR698. Kind of assay: Bacteriostatic effect. It is filed as cell-based. The following applies: for MIC: Escherichia coli, NR698, 24 h, read-out: MIC, E. coli NR698; for MIC, E. coli NR698: 24 hr incubation at 37 °C, outer membrane leaky mutant.

Structures are written as SMILES. ≈ marks a conversion by molar mass, not a printed value. Bounds are passed on as bounds.

Sequence of EcSecAN68 (P10408 1-610): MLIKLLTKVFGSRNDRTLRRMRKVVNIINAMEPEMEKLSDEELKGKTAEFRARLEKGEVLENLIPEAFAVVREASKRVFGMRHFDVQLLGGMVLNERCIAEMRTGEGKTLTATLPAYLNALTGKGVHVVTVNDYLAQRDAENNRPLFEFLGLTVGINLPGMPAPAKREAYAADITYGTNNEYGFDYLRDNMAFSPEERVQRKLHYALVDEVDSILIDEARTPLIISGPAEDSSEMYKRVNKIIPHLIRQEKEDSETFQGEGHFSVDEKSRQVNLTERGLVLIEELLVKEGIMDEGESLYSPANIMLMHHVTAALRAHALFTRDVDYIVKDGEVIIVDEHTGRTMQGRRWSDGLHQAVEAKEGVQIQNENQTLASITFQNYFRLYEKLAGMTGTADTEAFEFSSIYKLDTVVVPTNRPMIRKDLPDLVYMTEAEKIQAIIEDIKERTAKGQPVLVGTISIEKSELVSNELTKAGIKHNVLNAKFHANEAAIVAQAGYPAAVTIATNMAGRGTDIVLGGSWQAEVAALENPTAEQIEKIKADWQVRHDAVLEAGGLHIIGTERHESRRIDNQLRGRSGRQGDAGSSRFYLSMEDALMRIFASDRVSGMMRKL

With `FC(F)(F)c1cc(-c2nnc(S)[nH]2)cc(C(F)(F)F)c1` [Compound 5a, 5-(3,5-Bis(trifluoromethyl)phenyl)-4H-1,2,4-triazole-3-thiol], the minimal inhibitory concentration (MIC) with S. aureus 6538 and in the assay on E. coli NR698 was more than 250 µM each time. Further, the concentration for half-maximal inhibition (IC50) on EcSecAN68 amounted to 60 µM.
For the molecule `CSc1nc(C)cc(Sc2nnc(-c3cc(C(F)(F)F)cc(C(F)(F)F)c3)[nH]2)n1` [Compound 7a, 4-((5-(3,5-Bis(trifluoromethyl)phenyl)-4H-1,2,4-triazol-3-yl)thio)-6-methyl-2-(methylthio) pyrimidine], the results for the MIC in the assay on S. aureus 6538 and in the assay with E. coli NR698 were 18.8 µM (≈ 8.49 µg/mL) and 33.3 µM (≈ 15 µg/mL), respectively.
Take `CSc1nccc(Sc2nnc(-c3cc(C(F)(F)F)cc(C(F)(F)F)c3)[nH]2)n1` [Compound 7c, 4-((5-(3,5-Bis(trifluoromethyl)phenyl)-4H-1,2,4-triazol-3-yl)thio)-2-(methylthio) pyrimidine]: the minimum inhibitory concentration (MIC) in the assay with S. aureus 6538 stood at 62.5 µM (≈ 27.3 µg/mL); in the assay on E. coli NR698 it was 50 µM (≈ 21.9 µg/mL). This molecule returned an IC50 against EcSecAN68 of 95 µM.
For `CSc1nccc(Sc2nnc(-c3cc(C)cc(C)c3)[nH]2)n1` [Compound 7d, 4-((5-(3,5-Dimethylphenyl)-4H-1,2,4-triazol-3-yl)thio)-2-(methylthio) pyrimidine], the MIC in the assay on S. aureus 6538 and in the assay with E. coli NR698 was more than 250 µM in each case. This molecule yielded an IC50 against EcSecAN68 of 65 µM.
Take `CSc1nc(Cl)cc(Sc2nnc(-c3cc(C)cc(C)c3)[nH]2)n1` [Compound 7e, 4-Chloro-6-((5-(3,5-dimethylphenyl)-4H-1,2,4-triazol-3-yl)thio)-2-(methylthio) pyrimidine]: the MIC with S. aureus 6538 and in the assay with E. coli NR698 was 50 µM (≈ 18.2 µg/mL) throughout. At EcSecAN68, this molecule came in with an IC50 of 30 µM.
For the molecule `CSc1nc(Cl)cc(Sc2nnc(-c3cccc(F)c3)[nH]2)n1` [Compound 7f, 4-Chloro-6-((5-(3-fluorophenyl)-4H-1,2,4-triazol-3-yl)thio)-2-(methylthio) pyrimidine], the MIC in the assay on S. aureus 6538 is 175 µM (≈ 61.9 µg/mL); with E. coli NR698 it was 200 µM (≈ 70.8 µg/mL). At EcSecAN68, the IC50 was less than 50 µM.
For `CSc1nc(Cl)cc(Sc2nnc(-c3cc(F)cc(F)c3)[nH]2)n1` [Compound 7g, 4-Chloro-6-((5-(3,5-difluorophenyl)-4H-1,2,4-triazol-3-yl)thio)-2-(methylthio) pyrimidine] the same measures were 41.6 µM (≈ 15.5 µg/mL), 50 µM (≈ 18.6 µg/mL) and more than 100 µM.
Consider `COc1cc(OC)cc(-c2nnc(Sc3cc(Cl)nc(SC)n3)[nH]2)c1` [Compound 7h, 4-Chloro-6-((5-(3,5-dimethoxyphenyl)-4H-1,2,4-triazol-3-yl)thio)-2-(methylthio) pyrimidine], for which the values for the MIC in the assay with S. aureus 6538 and with E. coli NR698 were more than 250 µM and 100 µM (≈ 39.6 µg/mL), respectively. Moreover, the IC50 against EcSecAN68 is less than 50 µM.
For `CSc1nc(Cl)cc(Sc2nnc(-c3ccc(C(F)(F)F)cc3)[nH]2)n1` [Compound 7i, 4-Chloro-2-(methylthio)-6-((5-(4-(trifluoromethyl)phenyl)-4H-1,2,4-triazol-3-yl)thio) pyrimidine], the MIC amounted to 14.6 µM (≈ 5.9 µg/mL) with S. aureus 6538 and 25 µM (≈ 10.1 µg/mL) in the assay on E. coli NR698. On EcSecAN68, the IC50 is less than 50 µM.
Turning to `Cc1cc(C)cc(-c2nnc(Sc3cc(Cl)nc(Sc4ccccc4)n3)[nH]2)c1` [Compound 12b, 4-Chloro-6-((5-(3,5-dimethylphenyl)-4H-1,2,4-triazol-3-yl)thio)-2-(phenylthio) pyri-midine], the “MIC, S. aureus 6538” value in the assay on S. aureus 6538 amounted to 12.5 µM (≈ 5.32 µg/mL). For the same molecule, the “MIC, E. coli NR698” value in the assay with E. coli NR698 was more than 250 µM.
The like results for `OCCCCSc1nc(Cl)cc(Sc2nnc(-c3cc(C(F)(F)F)cc(C(F)(F)F)c3)[nH]2)n1` [Compound 12e, 4-((4-((5-(3,5-Bis(trifluoromethyl)phenyl)-4H-1,2,4-triazol-3-yl)thio)-6-chloropyri-midin-2-yl)thio) butan-1-ol] were, in that order, 25.0 µM (≈ 13.2 µg/mL) and 43.8 µM (≈ 23.2 µg/mL).
For the molecule `Cc1cc(C)cc(-c2n[nH]c(Sc3nc(Cl)cc(Cl)n3)n2)c1` [Compound 16b, 4,6-Dichloro-2-((3-(3,5-dimethylphenyl)-1H-1,2,4-triazol-5-yl)thio) pyrimidine], the MIC in the assay on S. aureus 6538 is 100 µM (≈ 35.2 µg/mL); in the assay with E. coli NR698 it was more than 164 µM.
